# Assay results as given in patent US9695155B2, “Herbicidal substituted pyrimidinyloxy benzene compounds” (E. I. DU PONT DE NEMOURS AND COMPANY, priority 2013, dated 2017).
# Legend:
# chickweed = assay: Test D preemergence; type: in vivo, Stellaria media; settings: Stellaria media, pre-emergence, scale 0-100, read-out: Plant response rating, Chickweed
# Excerpt: (§1) Seeds of plant species selected from bluegrass (annual bluegrass, Poa annua), blackgrass (Alopecurus myosuroides), canarygrass (littleseed canarygrass, Phalaris minor), chickweed (common chickweed, Stellaria media), galium (catchweed bedstraw, Galium aparine), bromegrass, downy (downy bromegrass, Bromus tectorum), field poppy (Papaver rhoeas), field violet (Viola arvensis), green foxtail (Setaria viridis), deadnettle (henbit deadnettle, Lamium amplexicaule), Italian ryegrass (Lolium multiflorum), kochia (Kochia scoparia), lambsquarters (Chenopodium album), oilseed rape (Brassica napus), pigweed (Amaranthus retroflexus), chamomile (scentless chamomile, Matricaria inodora), Russian thistle (Salsola kali), speedwell (bird's-eye speedwell, Veronica persica), spring barley (Hordeum vulgare), spring wheat (Triticum aestivum), wild buckwheat (Polygonum convolvulus), wild mustard (Sinapis arvensis), wild oat (Avena fatua), wild radish (Raphanus raphanistrum), windgrass (Apera spica-venti), winter barley (Hordeum vulgare), and winter wheat (Triticum aestivum) were planted into a silt loam soil and treated preemergence with test chemicals formulated in a non-phytotoxic solvent mixture which included a surfactant.
# (§2) At the same time, these species were planted in pots containing Redi-Earth® planting medium (Scotts Company, 14111 Scottslawn Road, Marysville, Ohio 43041) comprising spaghnum peat moss, vermiculite, wetting agent and starter nutrients and treated with postemergence applications of the test chemicals formulated in the same manner. Plants ranged in height from 2 to 18 cm (1- to 4-leaf stage). Treated plants and controls were maintained in a controlled growth environment for 7 to 21 days after which time all species were compared to controls and visually evaluated. Plant response ratings, summarized in Table D, are based on a scale of 0 to 100 where 0 is no effect and 100 is complete control. A dash (-) response means no test result.
# spring wheat = assay: Test D preemergence; type: in vivo, Triticum aestivum; settings: Triticum aestivum, pre-emergence
# Excerpt: as §1, §2
# winter wheat = assay: Test D preemergence; type: in vivo, Triticum aestivum; settings: Triticum aestivum, pre-emergence
# Excerpt: as §1, §2
# wild mustard = assay: Test D preemergence; type: in vivo, Sinapis arvensis; settings: Brassica, pre-emergence, scale 0-100, read-out: Plant response rating, Mustard, Wild
# Excerpt: as §1, §2
# galium = assay: Test D postemergence; type: in vivo, Galium aparine; settings: Galium, post-emergence, scale 0 to 100 (0 no effect, 100 complete control), read-out: Plant response rating, Galium
# How it was run: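 Visual rating vs untreated controls, 0 = no effect, 100 = complete control, taken 7–21 d after treatment. Pre: silt loam soil. Post: potting medium, plants 2–18 cm, 1–4 leaf. Formulation: non-phytotoxic solvent mix + surfactant.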
# deadnettle = assay: Test D postemergence; type: in vivo, Lamium amplexicaule; settings: Lamium amplexicaule, post-emergence, scale 0 to 100 (0 no effect, 100 complete control), read-out: Plant response rating, Deadnettle
# Excerpt: as §1, §2
# ragweed = assay: Test E postemergence; type: in vivo, Ambrosia elatior
# Excerpt: Seeds of plant species selected from corn (Zea mays), soybean (Glycine max), velvetleaf (Abutilon theophrasti), lambsquarters (Chenopodium album), wild poinsettia (Euphorbia heterophylla), palmer pigweed (Amaranthus palmeri), waterhemp (common waterhemp, Amaranthus rudis), surinam grass (Brachiaria decumbens), large (Lg) crabgrass (Digitaria sanguinalis), Brazilian crabgrass (Digitaria horizontalis), fall panicum (Panicum dichotomiflorum), giant foxtail (Setaria faberii), green foxtail (Setaria viridis), goosegrass (Eleusine indica), johnsongrass (Sorghum halepense), ragweed (common ragweed, Ambrosia elatior), barnyardgrass (Echinochloa crus-galli), sandbur (southern sandbur, Cenchrus echinatus), arrowleaf sida (Sida rhombifolia), Italian ryegrass (Lolium multiflorum), dayflower (Virginia (VA) dayflower, Commelina virginica), field bindweed (Convolvulus arvensis), morningglory (Ipomoea coccinea), nightshade (eastern black nightshade, Solanum ptycanthum), kochia (Kochia scoparia), yellow nutsedge (Cyperus esculentus), cocklebur (common cocklebur, Xanthium strumarium), smartweed (ladysthumb smartweed, and hairy beggarticks (Bidens pilosa), were planted into a silt loam soil and treated preemergence with test chemicals formulated in a non-phytotoxic solvent mixture which included a surfactant.
# At the same time, plants from these crop and weed species and also horseweed (Canada horseweed, Conyza canadensis), waterhemp_RES1, (ALS & Triazine resistant common waterhemp, Amaranthus rudis), and waterhemp_RES2, (ALS & HPPD resistant common waterhemp, Amaranthus rudis) were planted in pots containing Redi-Earth® planting medium (Scotts Company, 14111 Scottslawn Road, Marysville, Ohio 43041) comprising spaghnum peat moss, vermiculite, wetting agent and starter nutrients were treated with postemergence applications of test chemicals formulated in the same manner. Plants ranged in height from 2 to 18 cm for postemergence treatments (1- to 4-leaf stage). Treated plants and controls were maintained in a greenhouse for 14 to 21 days, after which time all species were compared to controls and visually evaluated. Plant response ratings, summarized in Table E, are based on a scale of 0 to 100 where 0 is no effect and 100 is complete control. A dash (-) response means no test result.
# kochia = assay: Test F preemergence; type: in vivo, Kochia scoparia; settings: 21 days, scale 0 to 100
# Excerpt: (§3) Seeds of plant species selected from bermudagrass (Cynodon dactylon), surinam grass (Brachiaria decumbens), large (Lg) crabgrass (Digitaria sanguinalis), crabgrass, naked (naked crabgrass, Digitaria nuda), foxtail, green (green foxtail, Setaria viridis), johnsongrass (Sorghum halepense), kochia (Kochia scoparia), morningglory (pitted morningglory, Ipomoea lacunosa), nutsedge, purple (purple nutsedge, Cyperus rotundus), ragweed (common ragweed, Ambrosia elatior), mustard, black (black mustard, Brassica nigra), guineagrass (Panicum maximum), dallisgrass (Paspalum dilatatum), barnyardgrass (Echinochloa crus-galli), sandbur (southern sandbur, Cenchrus echinatus), sowthistle (common sowthistle, Sonchus oleraceous), Italian ryegrass (Lolium multiflorum), signalgrass (broadleaf signalgrass, Brachiaria platyphylla), dayflower (Virginia (VA) dayflower, Commelina virginica), bluegrass (annual bluegrass, Poa annua), quackgrass (Elytrigia repens), mallow (common mallow, Malva sylvestris), buckwheat, wild (wild buckwheat, Polygonum convolvulus), leafy spurge (Euphorbia esula), chickweed (common chickweed, Stellaria media), wild poinsettia (Euphorbia heterophylla), and pigweed (Amaranthus retroflexus) were planted into a blend of loam soil and sand and treated preemergence with test chemicals formulated in a non-phytotoxic solvent mixture which included a surfactant.
# (§4) Treated plants and controls were maintained in a greenhouse for 21 days, after which time all species were compared to controls and visually evaluated. Plant response ratings, summarized in Table F, are based on a scale of 0 to 100 where 0 is no effect and 100 is complete control. A dash (-) response means no test result.
# sandbur = assay: Test F preemergence; type: in vivo, Cenchrus echinatus; settings: 21 days, scale 0 to 100
# Excerpt: as §3, §4
# [1] = Postemergence, 31 g ai/ha, scale 0 to 100
# [2] = Postemergence, 62 g ai/ha, scale 0 to 100
# [3] = Postemergence, 125 g ai/ha, scale 0 to 100
# [4] = postemergence, 16 g ai/ha, scale 0 to 100, 0 no effect, 100 complete control
structure (smiles),measurement,setting,value
"N#Cc1cccc(Oc2ncc(Cl)cn2)c1-n1cc(Br)cn1 [Compound 52, 2-(4-bromo-1H-pyrazol-1-yl)-3-[(5-chloro-2-pyrimidinyl)oxy]benzonitrile]",pest or weed control at 31 g/ha,chickweed; 31 g ai/ha,100%
same,pest or weed control at 62 g/ha,chickweed; 62 g ai/ha,100%
same,pest or weed control at 125 g/ha,chickweed; 125 g ai/ha,100%
same,pest or weed control at 250 g/ha,chickweed; 250 g ai/ha,100%
same,plant injury at 31 g/ha,"spring wheat; 31 g ai/ha, scale 0 (no effect) to 100 (complete control), read-out: Plant response rating, Wheat, Spring",0%
same,plant injury at 62 g/ha,"spring wheat; 62 g ai/ha, scale 0-100, read-out: Plant response rating, Wheat, Spring",0%
same,plant injury at 125 g/ha,"spring wheat; 125 g ai/ha, scale 0-100, read-out: Plant response rating, Wheat, Spring",0%
same,plant injury at 250 g/ha,"spring wheat; 250 g ai/ha, scale 0-100, read-out: Plant response rating, Wheat, Spring",30%
same,plant injury at 31 g/ha,"winter wheat; 31 g ai/ha, scale 0 (no effect) to 100 (complete control), read-out: Plant response rating, Wheat, Winter",0%
same,plant injury at 62 g/ha,"winter wheat; 62 g ai/ha, scale 0-100, read-out: Plant response rating, Wheat, Winter",0%
same,plant injury at 125 g/ha,"winter wheat; 125 g ai/ha, scale 0-100, read-out: Plant response rating, Wheat, Winter",25%
same,plant injury at 250 g/ha,"winter wheat; 250 g ai/ha, scale 0-100, read-out: Plant response rating, Wheat, Winter",35%
same,pest or weed control at 31 g/ha,wild mustard; 31 g ai/ha,20%
same,pest or weed control at 62 g/ha,wild mustard; 62 g ai/ha,55%
same,pest or weed control at 125 g/ha,wild mustard; 125 g ai/ha,90%
same,pest or weed control at 250 g/ha,wild mustard; 250 g ai/ha,100%
same,pest or weed control at 31 g/ha,galium; 31 g ai/ha,70%
same,pest or weed control at 62 g/ha,galium; 62 g ai/ha,80%
same,pest or weed control at 125 g/ha,galium; 125 g ai/ha,95%
same,pest or weed control at 250 g/ha,galium; 250 g ai/ha,100%
same,pest or weed control at 31 g/ha,deadnettle; 31 g ai/ha,65%
same,pest or weed control at 62 g/ha,deadnettle; 62 g ai/ha,70%
same,pest or weed control at 125 g/ha,deadnettle; 125 g ai/ha,70%
same,pest or weed control at 250 g/ha,deadnettle; 250 g ai/ha,100%
same,"Plant response rating, Ragweed",ragweed; [1],50
same,"Plant response rating, Ragweed",ragweed; [2],55
same,"Plant response rating, Ragweed",ragweed; [3],60
same,"Plant response rating, Ragweed",ragweed; [4],40
Clc1cnc(Oc2cccc(Cl)c2-n2cc(I)cn2)nc1 [Compound 181],"Plant response rating, Ragweed",ragweed; [1],25
same,"Plant response rating, Ragweed",ragweed; [2],30
same,"Plant response rating, Ragweed",ragweed; [3],50
same,"Plant response rating, Ragweed",ragweed; [4],20
"N#Cc1cccc(Oc2ncc(F)cn2)c1-n1cc(C(F)(F)F)cn1 [Compound 79, 3-[(5-fluoro-2-pyrimidinyl)oxy]-2-[4-(trifluoromethyl)-1H-pyrazol-1-yl]benzonitrile]","Plant response rating, Ragweed",ragweed; [1],40
same,"Plant response rating, Ragweed",ragweed; [2],50
same,"Plant response rating, Ragweed",ragweed; [3],60
same,"Plant response rating, Ragweed",ragweed; [4],30
same,"Plant response rating, Kochia",kochia; 16 g ai/ha,100
same,"Plant response rating, Kochia",kochia; 31 g ai/ha,100
same,"Plant response rating, Kochia",kochia; 62 g ai/ha,100
same,"Plant response rating, Kochia",kochia; 125 g ai/ha,100
same,"Plant response rating, Kochia",kochia; 250 g ai/ha,100
same,"Plant response rating, Sandbur",sandbur; 16 g ai/ha,10
same,"Plant response rating, Sandbur",sandbur; 31 g ai/ha,15
same,"Plant response rating, Sandbur",sandbur; 62 g ai/ha,95
same,"Plant response rating, Sandbur",sandbur; 125 g ai/ha,98
same,"Plant response rating, Sandbur",sandbur; 250 g ai/ha,100
